Experiments:
Assay type in all cases: in vivo
[1] = test system: Phytophthora infestans; assay: whole plant or invertebrate; settings: for pest or weed control at 4 µg/mL: Phytophthora infestans, in Solanum lycopersicum, 96 h, read-out: control value (Test 1); for control value (Test 1): tomato late blight, control value vs untreated section
[2] = test system: Pseudoperonospora cubensis; assay: Test 2: control effect against cucumber downy mildew; settings: control value vs untreated section; for pest or weed control at 4 µg/mL: Pseudoperonospora cubensis, 120 h
Outline: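 Cucumber (Sagami hanjiro) at 2-leaf stage sprayed with 4 ppm compound from 10% wettable powder in Tween20 (1/5000); inoculated next day with P. cubensis zoospores, 1.0×10^4 units/ml, 16 hr moist chamber at 22° C. Lesion area rate scored 5 days post-inoculation; control value = (1 − treated/untreated onset area rate)×100.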

[3] = test system: Plasmopara viticola; assay: Test 3: control effect against grape downy mildew; settings: control value vs untreated section; for pest or weed control at 4 µg/mL: Plasmopara viticola, 120 h
Outline: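 Neomuscat grape seedlings were sprayed with compound at 4 ppm, diluted from a 10% wettable powder in Tween20 solution. One day later they were inoculated with Plasmopara viticola zoospores at 1.0×10^4 units/ml and held moist at 22° C. for 16 hr. Control value was derived from leaf lesion area at 5 days versus untreated leaves.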

| SMILES | pest or weed control at 4 µg/mL [1] [%] | pest or weed control at 4 µg/mL [2] [%] | pest or weed control at 4 µg/mL [3] [%] | control value (Test 1) [1] | control value (Test 2) [2] | control value (Test 3) [3] |
| --- | --- | --- | --- | --- | --- | --- |
| CS(=O)(=O)Oc1cccc2c1COC(c1csc(C3CCN(C(=O)Cn4nc(C(F)F)cc4C(F)F)CC3)n1)OC2 (stereo not drawn) [Compound 1-38, 4-[4-(6-methylsulfonyloxy-1,5-dihydro-3H-2,4-benzodioxepin-3-yl)-2-thiazolyl]-1-[2-[3,5-bis(difluoromethyl)-1H-pyrazole-1-yl]acetyl]piperidine] | 100 | 100 | 100 | – | – | – |
| Cc1cc(C(F)(F)F)nn1CC(=O)N1CCC(c2nc(C3OCc4ccc(C(F)(F)F)cc4CO3)cs2)CC1 (stereo not drawn) [Compound 1-16] | – | – | – | 100 | 100 | 100 |
| COc1ccc(OS(C)(=O)=O)c2c1COC(c1csc(C3CCN(C(=O)Cc4cc(C)ccc4C)CC3)n1)OC2 (stereo not drawn) [Compound 2-28] | – | – | – | 90 | 100 | 100 |
| CS(=O)(=O)Oc1ccc(F)c2c1COC(c1csc(C3CCN(C(=O)Cn4nc(C(F)(F)F)cc4C(F)(F)F)CC3)n1)OC2 (stereo not drawn) [Compound 1-87] | – | – | – | 100 | 100 | 100 |
| CS(=O)(=O)Oc1ccc([N+](=O)[O-])c2c1COC(c1csc(C3CCN(C(=O)Cn4nc(C(F)(F)F)cc4C(F)(F)F)CC3)n1)OC2 (stereo not drawn) [Compound 1-128] | – | – | – | 100 | 100 | 100 |
| CON=Cc1cccc2c1COC(c1csc(C3CCN(C(=O)Cn4nc(C(F)(F)F)cc4C)CC3)n1)OC2 (stereo not drawn) [Compound 1-63] | – | – | – | 100 | 100 | 100 |
| CS(=O)(=O)Oc1ccc([N+](=O)[O-])c2c1COC(c1csc(C3CCN(C(=O)Cn4nc(C(F)F)cc4C(F)F)CC3)n1)OC2 (stereo not drawn) [Compound 1-124] | – | – | – | 100 | 100 | 100 |
| CS(=O)(=O)Oc1ccc(Cl)c2c1COC(c1csc(C3CCN(C(=O)Cc4cc(Cl)ccc4Cl)CC3)n1)OC2 (stereo not drawn) [Compound 2-41] | – | – | – | 100 | 100 | 100 |
| COC(=O)Oc1cccc2c1COC(c1csc(C3CCN(C(=O)Cn4nc(C(F)(F)F)cc4C)CC3)n1)OC2 (stereo not drawn) [Compound 1-37] | – | – | – | 100 | 100 | 100 |
| CS(=O)(=O)Oc1ccc(Br)c2c1COC(c1csc(C3CCN(C(=O)Cc4cc(Cl)ccc4Cl)CC3)n1)OC2 (stereo not drawn) [Compound 2-35] | – | – | – | 100 | 100 | 100 |
| O=C(Cn1nc(C(F)F)cc1C(F)F)N1CCC(c2nc(C3OCc4cc5ccccc5cc4CO3)cs2)CC1 [Compound 1-77] | – | – | – | 100 | 100 | 100 |
| CS(=O)(=O)Oc1c(F)ccc2c1COC(c1csc(C3CCN(C(=O)Cn4nc(C(F)F)cc4C(F)F)CC3)n1)OC2 (stereo not drawn) [Compound 1-132, 4-[4-(7-fluoro-6-methylsulfonyloxy-1,5-dihydro-3H-2,4-benzodioxepin-3-yl)-2-thiazolyl]-1-[2-[3,5-bis(difluoromethyl)-1H-pyrazole-1-yl]acetyl]piperidine] | 100 | 100 | 100 | – | – | – |
| O=C(Cn1nc(C(F)(F)F)cc1C(F)(F)F)N1CCC(c2nc(C3OCc4cccc(OC(F)F)c4CO3)cs2)CC1 (stereo not drawn) [Compound 1-137] | – | – | – | 100 | 100 | 100 |
| Cc1cc(C(F)(F)F)nn1C(C)C(=O)N1CCC(c2nc(C3OCc4cccc(OS(C)(=O)=O)c4CO3)cs2)CC1 (stereo not drawn) [Compound 1-152] | – | – | – | 100 | 100 | 100 |
| CS(=O)(=O)Oc1ccc(OS(C)(=O)=O)c2c1COC(c1csc(C3CCN(C(=O)Cn4nc(C(F)F)cc4C(F)F)CC3)n1)OC2 [Compound 1-146] | – | – | – | 100 | 100 | 100 |
| CS(=O)(=O)Oc1cccc2c1COC(c1csc(C3CCN(C(=O)Cn4nc(C(Cl)Cl)cc4C(Cl)Cl)CC3)n1)OC2 (stereo not drawn) [Compound 1-119, 4-[4-(6-methylsulfonyloxy-1,5-dihydro-3H-2,4-benzodioxepin-3-yl)-2-thiazolyl]-1-[2-[3,5-bis(dichloromethyl)-1H-pyrazole-1-yl]acetyl]piperidine] | 100 | 100 | 100 | – | – | – |
| CS(=O)(=O)Oc1ccc(Br)c2c1COC(c1csc(C3CCN(C(=O)Cn4nc(C(F)F)cc4C(F)F)CC3)n1)OC2 (stereo not drawn) [Compound 1-125] | – | – | – | 100 | 100 | 100 |
| Cc1cc(C)n(CC(=O)N2CCC(c3nc(C4OCc5c(F)ccc(OS(C)(=O)=O)c5CO4)cs3)CC2)n1 (stereo not drawn) [Compound 1-120] | – | – | – | 100 | 100 | 100 |

| SMILES | pest or weed control at 4 µg/mL [1] [%] | pest or weed control at 4 µg/mL [2] [%] | pest or weed control at 4 µg/mL [3] [%] | control value (Test 1) [1] | control value (Test 2) [2] | control value (Test 3) [3] |
| --- | --- | --- | --- | --- | --- | --- |
| Cc1cccc2c1COC(c1csc(C3CCN(C(=O)Cn4nc(C(F)(F)F)cc4C)CC3)n1)OC2 (stereo not drawn) [Compound 1-14] | – | – | – | 100 | 100 | 100 |
| O=C(Cn1nc(C(F)F)cc1C(F)F)N1CCC(c2nc(C3OCc4ccc(C(F)(F)F)cc4CO3)cs2)CC1 (stereo not drawn) [Compound 1-60] | – | – | – | 100 | 100 | 100 |
| COc1ccc(OS(C)(=O)=O)c2c1COC(c1csc(C3CCN(C(=O)Cc4cc(Cl)ccc4Cl)CC3)n1)OC2 (stereo not drawn) [Compound 2-26] | – | – | – | 100 | 100 | 100 |
| COc1ccc(OS(C)(=O)=O)c2c1COC(c1csc(C3CCN(C(=O)Cn4nc(C(F)(F)F)cc4C(F)(F)F)CC3)n1)OC2 (stereo not drawn) [Compound 1-117] | – | – | – | 100 | 100 | 100 |
| CS(=O)(=O)Oc1c(F)ccc2c1COC(c1csc(C3CCN(C(=O)Cn4nc(C(F)(F)F)cc4C(F)(F)F)CC3)n1)OC2 (stereo not drawn) [Compound 1-131, 4-[4-(7-fluoro-6-methylsulfonyloxy-1,5-dihydro-3H-2,4-benzodioxepin-3-yl)-2-thiazolyl]-1-[2-[3,5-bis(trifluoromethyl)-1H-pyrazole-1-yl]acetyl]piperidine] | 100 | 100 | 100 | – | – | – |
| O=C(CON=CC(F)(F)F)N1CCC(c2nc(C3OCc4c(F)ccc(F)c4CO3)cs2)CC1 [Compound 3-4] | – | – | – | 100 | 100 | 100 |
| Cc1ccc(C)c(CC(=O)N2CCC(c3nc(C4OCc5c(OS(C)(=O)=O)ccc([N+](=O)[O-])c5CO4)cs3)CC2)c1 (stereo not drawn) [Compound 2-37] | – | – | – | 90 | 100 | 100 |
| COc1ccc([N+](=O)[O-])c2c1COC(c1csc(C3CCN(C(=O)Cn4nc(C(F)(F)F)cc4C(F)(F)F)CC3)n1)OC2 (stereo not drawn) [Compound 1-83] | – | – | – | 100 | 100 | 100 |
| CS(=O)(=O)Oc1ccc2c(c1)COC(c1csc(C3CCN(C(=O)Cn4nc(C(F)(F)F)cc4C(F)(F)F)CC3)n1)OC2 (stereo not drawn) [Compound 1-139] | – | – | – | 100 | 100 | 100 |
| Cc1cc(C(F)(F)F)nn1CC(=O)N1CCC(c2nc(C3OCc4ccc(OS(C)(=O)=O)cc4CO3)cs2)CC1 (stereo not drawn) [Compound 1-9] | – | – | – | 100 | 80 | 100 |
| CS(=O)(=O)Oc1cccc2c1COC(c1csc(C3CCN(C(=O)Cn4nc(C(F)(F)F)cc4C(F)(F)F)CC3)n1)OC2 (stereo not drawn) [Compound 1-42, 4-[4-(6-methylsulfonyloxy-1,5-dihydro-3H-2,4-benzodioxepin-3-yl)-2-thiazolyl]-1-[2-[3,5-bis(trifluoromethyl)-1H-pyrazole-1-yl]acetyl]piperidine] | 100 | 100 | 100 | – | – | – |
| O=C(Cn1nc(C(F)F)cc1C(F)F)N1CCC(c2nc(C3OCc4ccc(C(F)(F)F)cc4CO3)cs2)CC1 (stereo not drawn) [Compound 1-81] | – | – | – | 100 | 100 | 100 |
| O=C(Cn1nc(C(F)(F)F)cc1C(F)(F)F)N1CCC(c2nc(C3OCc4ccccc4CO3)cs2)CC1 [Compound 1-85] | – | – | – | 100 | 100 | 100 |
| O=C(Cn1nc(C(F)F)cc1C(F)F)N1CCC(c2nc(C3OCc4cccc(F)c4CO3)cs2)CC1 (stereo not drawn) [Compound 1-35] | – | – | – | 100 | 100 | 100 |
| O=C(Cn1nc(C(F)F)cc1C(F)F)N1CCC(c2nc(C3OCc4ccc(Br)cc4CO3)cs2)CC1 (stereo not drawn) [Compound 1-99] | – | – | – | 100 | 100 | 100 |
| CS(=O)(=O)Oc1cccc2c1COC(c1csc(C3CCN(C(=O)CON=CC(F)(F)F)CC3)n1)OC2 (stereo not drawn) [Compound 3-6] | – | – | – | 100 | 100 | 100 |
| COc1ccc(OS(C)(=O)=O)c2c1COC(c1csc(C3CCN(C(=O)Cn4nc(C(F)(F)F)cc4Cl)CC3)n1)OC2 (stereo not drawn) [Compound 1-108] | – | – | – | 100 | 100 | 100 |

— US10104891B2 (priority 2014, dated 2018)
